For data set [1], the system named is human cervical carcinoma SiHa. In words: Proliferation assay (IC50) under aerobic and hypoxic conditions, SiHa. It counts as cell-based. The following applies: for IC50: Homo sapiens, 4 h drug exposure, sulforhodamine B; for HCR: hypoxic cytotoxicity ratio = IC50 aerobic/IC50 hypoxic. The method, boiled down: (§1)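 HT29 (1100) and SiHa (1500) cells in αMEM with 17 mM glucose and 100 μM 2′-dCyd, exposed 4 h at 37 °C to 3-fold dilutions under 20% O2 or anoxia (<0.001% O2). Regrowth 5 (oxic) or 6 (anoxic) days; IC50 by sulforhodamine B. HCR = IC50 aerobic/IC50 hypoxic.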

Data set [2] deals with human colon carcinoma HT29. Briefly: Proliferation assay (IC50) under aerobic and hypoxic conditions, HT29. The format is cell-based. As to conditions: for IC50: Homo sapiens, 4 h drug exposure, sulforhodamine B; for HCR: hypoxic cytotoxicity ratio = IC50 aerobic/IC50 hypoxic. An outline of the steps:
as §1

Setting [3] is: hypoxic (anaerobic chamber, <0.001% O2), then 6 days growth, read-out: IC50 (μM) hypoxic.
The mark [4] stands for this setting: oxic (20% O2), then 5 days growth, read-out: IC50 (μM) oxic.
[5] abbreviates: HT-29, hypoxic (anaerobic chamber, <0.001% O2), then 6 days growth, read-out: IC50 (μM) hypoxic.
Setting [6] is: HT-29, oxic (20% O2), then 5 days growth, read-out: IC50 (μM) oxic.

Where two headings read alike, the source gives them in different places.

For `[O-][n+]1nc(NCCN2CCCCC2)[n+]([O-])c2ccc3c(c21)CCC3` [Compound 13, N-[2-(1-Piperidinyl)ethyl]-8,9-dihydro-7H-indeno[5,4-e][1,2,4]triazin-3-amine 1,4-Dioxide], the melting point (commonly the temperature of the solid-liquid transition) lay in the range of 138 to 141 °C. The IC50 (usually the concentration needed to halve the response being measured) in data set [1] (setting [3]) was 1 ± 0.1 µM. The IC50 in data set [1] (setting [4]) was 52 ± 8 µM. Further, the HCR in data set [1] stood at 51 ± 1. Besides, in data set [2] (setting [5]), the IC50 turned out to be 4.9 ± 0.6 µM. For the same molecule, in data set [2] (setting [6]), the IC50 amounted to 251 ± 24 µM. Further, the HCR in data set [2] came to 53 ± 11.

As to `[O-][n+]1nc(NCCCN2CCOCC2)[n+]([O-])c2cc3c(cc21)CCC3` [Compound 61, N-[3-(4-Morpholinyl)propyl]-7,8-dihydro-6H-indeno[5,6-e][1,2,4]triazin-3-amine 1,4-Dioxide], the melting point fell in the range of 158 to 160 °C. The IC50 in data set [1] (setting [3]) stood at 8.8 ± 1.7 µM. For the same molecule, the IC50 in data set [1] (setting [4]) was 357 ± 35 µM. For the same molecule, in data set [1], the HCR is 44 ± 12. The IC50 in data set [2] (setting [5]) was determined as 21 ± 8 µM. Also, the concentration for half-maximal inhibition (IC50) in data set [2] (setting [6]) came out at 385 ± 14 µM. The HCR in data set [2] stood at 20 ± 5.

`[O-][n+]1nc(CCCN2CCOCC2)[n+]([O-])c2cc3c(cc21)CC(CO)C3` (stereo not drawn) [Compound 141, {3-[3-(4-Morpholinyl)propyl]-1,4-dioxido-7,8-dihydro-6H-indeno[5,6-e][1,2,4]triazin-7-yl}methanol] showed a melting point of 112 to 114 °C. The IC50 in data set [1] (setting [3]) is 1.8 ± 0.2 µM. Moreover, the IC50 in data set [1] (setting [4]) is 377 µM. Further, the HCR in data set [1] is recorded as 206. Also, the concentration for half-maximal inhibition (IC50) in data set [2] (setting [5]) worked out at 2.4 ± 0.1 µM. Also, the half-inhibitory concentration (IC50) in data set [2] (setting [6]) amounted to 294 ± 34 µM. Also, the HCR in data set [2] amounted to 121 ± 14.

`CCc1n[n+]([O-])c2cc3c(cc2[n+]1[O-])CC(CCO)C3` (stereo not drawn) [Compound 162, 2(3-Ethyl-1,4-dioxido-7,8-dihydro-6H-indeno[5,6-e][1,2,4]triazin-7-yl)ethanol] gave a melting point of 152 to 155 °C. In addition, the IC50 in data set [1] (setting [3]) was 2.9 ± 0.4 µM. Further, the IC50 in data set [1] (setting [4]) stood at 283 µM. The HCR in data set [1] was 86. Besides, the IC50 in data set [2] (setting [5]) turned out to be 7.7 ± 1.2 µM. Moreover, the IC50 in data set [2] (setting [6]) amounted to 717 ± 320 µM. Moreover, the HCR in data set [2] turned out to be 102 ± 57.

On to `CCN(CC)CCNc1n[n+]([O-])c2c3c(ccc2[n+]1[O-])CCC3` [Compound 9, N^1,N^1-Diethyl-N^2-(1,4-dioxido-8,9-dihydro-7H-indeno[5,4-e][1,2,4]triazin-3-yl)-1,2-ethanediamine], for which the melting point fell in the range of 138 to 141 °C. Also, the IC50 in data set [1] (setting [3]) is 0.9 ± 0.2 µM. In data set [1] (setting [4]), the IC50 turned out to be 59 ± 4 µM. The HCR in data set [1] stood at 64 ± 4. In addition, in data set [2] (setting [5]), the half-inhibitory concentration (IC50) turned out to be 4.2 ± 1.5 µM. Moreover, the IC50 in data set [2] (setting [6]) amounted to 72 ± 22 µM. Further, the HCR in data set [2] came to 17 ± 5.

Take `Nc1n[n+]([O-])c2cc3c(cc2[n+]1[O-])CCC3` [Compound 20, 7,8-Dihydro-6H-indeno[5,6-e][1,2,4]triazin-3-amine 1,4-Dioxide]: the melting point lay within 190 to 195 °C. For the same molecule, in data set [1] (setting [3]), the IC50 turned out to be 8.3 ± 0.4 µM. For the same molecule, the IC50 in data set [1] (setting [4]) turned out to be 253 ± 30 µM. In addition, the HCR in data set [1] is listed as 31 ± 5. Moreover, the IC50 in data set [2] (setting [5]) stood at 15 ± 6 µM. For the same molecule, the IC50 in data set [2] (setting [6]) stood at 387 ± 108 µM. The HCR in data set [2] came to 27 ± 2.

The molecule `[O-][n+]1nc(CCCN2CCOCC2)[n+]([O-])c2cc3c(cc21)CCO3` [Compound 216, 3-[3-(4-Morpholinyl)propyl]-7,8-dihydrofuro[2,3-g][1,2,4]benzotriazine 1,4-Dioxide] yielded a melting point of 150 to 154 °C. The IC50 in data set [1] (setting [3]) was 5.05 ± 0.01 µM. Besides, the IC50 in data set [1] (setting [4]) is 216 µM. Further, in data set [1], the HCR was 43. Also, in data set [2] (setting [5]), the IC50 was 8.9 ± 0.4 µM. Besides, the IC50 in data set [2] (setting [6]) was 218 ± 54 µM. For the same molecule, the HCR in data set [2] amounted to 25 ± 6.

Take `COC1CN(CCNc2n[n+]([O-])c3cc4c(cc3[n+]2[O-])CCC4)C1` [Compound 35, N-[2-(3-Methoxy-1-azetidinyl)ethyl]-7,8-dihydro-6H-indeno[5,6-e][1,2,4]triazin-3-amine 1,4-Dioxide]: the melting point is 152 °C (dec.). Also, the IC50 in data set [1] (setting [3]) was found to be 1.8 ± 0.2 µM. The IC50 in data set [1] (setting [4]) worked out at 108 ± 8 µM. Besides, the HCR in data set [1] is on record as 61 ± 10. For the same molecule, the IC50 in data set [2] (setting [5]) turned out to be 3.4 ± 0.1 µM. In data set [2] (setting [6]), the IC50 is 165 ± 10 µM. Besides, the HCR in data set [2] is 49 ± 5.

`COC1CCN(CCNc2n[n+]([O-])c3cc4c(cc3[n+]2[O-])CCC4)CC1` [Compound 43, N-[2-(4-Methoxy-1-piperidinyl)ethyl]-7,8-dihydro-6H-indeno[5,6-e][1,2,4]triazin-3-amine 1,4-Dioxide]: the melting point lay within 148 to 151 °C. Also, the IC50 in data set [1] (setting [3]) worked out at 1.2 ± 0.1 µM. Besides, the IC50 in data set [1] (setting [4]) turned out to be 91 ± 3 µM. In addition, the HCR in data set [1] was found to be 78 ± 11. For the same molecule, the IC50 in data set [2] (setting [5]) was 3.5 ± 0.3 µM. Also, the IC50 in data set [2] (setting [6]) worked out at 187 ± 98 µM. The HCR in data set [2] amounted to 56 ± 33.

Molecule `COC1CCN(CCCNc2n[n+]([O-])c3cc4c(cc3[n+]2[O-])CCC4)CC1` [Compound 59, N-[3-(4-Methoxy-1-piperidinyl)propyl]-7,8-dihydro-6H-indeno[5,6-e][1,2,4]triazin-3-amine 1,4-Dioxide] registered a melting point of 128 to 130 °C. Besides, in data set [1] (setting [3]), the IC50 is 2 ± 0.2 µM. For the same molecule, the IC50 in data set [1] (setting [4]) is 114 ± 2 µM. Also, the HCR in data set [1] stood at 57 ± 1. Also, the IC50 in data set [2] (setting [5]) was 7.1 ± 0.8 µM. The IC50 in data set [2] (setting [6]) came out at 494 ± 36 µM. The HCR in data set [2] came out at 70 ± 5.

The molecule `CCc1n[n+]([O-])c2cc3c(cc2[n+]1[O-])CC(CN1CCOCC1)C3` (stereo not drawn) [Compound 144, 3-Ethyl-7-(4-morpholinylmethyl)-7,8-dihydro-6H-indeno[5,6-e][1,2,4]triazine 1,4-Dioxide] yielded a melting point of 164 to 165 °C. Besides, in data set [1] (setting [3]), the IC50 is 2.4 ± 0.1 µM. Also, in data set [1] (setting [4]), the IC50 was found to be 147 ± 37 µM. In addition, the HCR in data set [1] turned out to be 62 ± 19. For the same molecule, in data set [2] (setting [5]), the half-inhibitory concentration (IC50) amounted to 4.8 ± 1.3 µM. In data set [2] (setting [6]), the IC50 turned out to be 154 ± 51 µM. Moreover, the HCR in data set [2] was found to be 31 ± 2.

Regarding `CN(C)CCNc1n[n+]([O-])c2cc3c(cc2[n+]1[O-])CCCCC3` [Compound 189, N^1-(1,4-Dioxido-7,8,9,10-tetrahydro-6H-cyclohepta[g][1,2,4]benzotriazin-3-yl)-N^2,N^2-dimethyl-1,2-ethanediamine], the melting point was in the range of 131 to 133 °C. Also, the concentration for half-maximal inhibition (IC50) in data set [1] (setting [3]) is 1.2 ± 0.1 µM. The IC50 in data set [1] (setting [4]) was found to be 99 ± 32 µM. In addition, the HCR in data set [1] turned out to be 88 ± 32. Further, in data set [2] (setting [5]), the IC50 is 5.2 ± 0.9 µM. Also, the IC50 in data set [2] (setting [6]) came to 250 ± 119 µM. Moreover, the HCR in data set [2] was found to be 54 ± 32.
